In assay [1] the target is HPV-11 E2 (E2-dependent binding of E1 to the HPV-11 origin of replication) (Human papillomavirus 11, UniProt P04015). Put plainly: E2-dependent E1 origin-binding assay. In kind it is biochemical. The settings on record: assay of Example 6; read-out: IC50 (inhibitory activity). From the text:
E2-Dependent E1 Origin-Binding Assay
This assay was modeled on a similar assay for SV40 T Antigen described by McKay (J. Mol. Biol., 1981,145:471). A 400 bp radiolabeled DNA probe, containing the HPV-11 origin of replication (Chiang et al., 1992, Proc. Natl. Acad. Sci. USA 89:5799) was produced by PCR, using plasmid pBluescript™ SK encoding the origin (nucleotides 7886-61 of the HPV-11 genome in unique BAMH1 site) as template and primers flanking the origin. Radiolabel was incorporated as [^33P]dCTP. Binding assay buffer consisted of: 20 mM Tris pH 7.6, 100 mM NaCl, 1 mM DTT, 1 mM EDTA.
Other reagents used were protein A-SPA beads (type II, Amersham) and K72 rabbit polyclonal antiserum, raised against a peptide corresponding to the C-terminal 14 amino acids of HPV-11 E1. Following the protocol from Amersham, one bottle of beads was mixed with 25 mL of binding assay buffer. For the assay, a saturating amount of K72 antiserum was added to the beads and the mixture was incubated for 1 h, washed with one volume of binding assay buffer, and then resuspended in the same volume of fresh binding assay buffer. […] After an additional hour of incubation at room temperature, the reactions were centrifuged briefly to pellet the beads and the extent of complex formation was determined by scintillation counting on a Packard TopCount™. […]

Assay [2] addresses T1, SV40 T Antigen (TAg)-origin complex (Simian virus 40, UniProt P03070).
T1 construct: The Large T Antigen: Purchased from Chimerx, at 2.0 mg/mL; purchased Chimerx
The assay is described as follows: SV40 T Antigen-DNA binding assay (counterscreen). In kind it is biochemical. As to conditions: assay of Example 7, counterscreen. From the text: SV40 T Antigen-DNA Binding Assay
This assay measures the formation of an SV40 T Antigen (TAg)-origin complex. The assay was developed by R. D. G. McKay (J. Mol. Biol. (1981) 145, 471–488). In principle, it is very similar to the E2-dependent E1-DNA binding assay (Example 6), with TAg replacing E1 and E2, and a radiolabeled SV40 ori probe replacing the HPV ori probe. The assay is used as a counterscreen for the assay of Example 6, since TAg shares functional homology to E1 and E2, but has very low sequence similarity.
The radiolabeled ori-containing DNA probe was made by PCR using pCH110 plasmid (Pharmacia) as a template. This template encodes the SV40 minimal origin of replication at nucleotides 7098-7023. Primers were “sv40-6958sens”=5′-GCCCCTAACTCCGCCCATCCCGC (SEQ ID NO. 7), and “sv40-206anti”=5′-ACCAGACCGCCACGGCTTACGGC (SEQ ID NO. 8). The PCR product was approximately 370 base pairs long and was radiolabeled using 50 μCi/100 μL PCR reaction of dCTP (α-^33P). […]
The protein-DNA complexes were immunocaptured using an α-TAg monoclonal antibody (PAb 101, subtype IgG2a, hybridoma obtained from ATCC and antibody purified in-house) bound to protein A-SPA beads. […] The plates were spun briefly and the precipitated radiolabeled DNA fragments were counted on a TopCount® counter.
(In general: The purpose of a counterscreen is to sort out artefacts and off-target activity.)

Experimental findings from patent US7167801B2, “Method of identifying potential inhibitors of human papillomavirus protein E2 using x-ray atomic coordinates” (Boehringer Ingelheim (Canada) Ltd., priority 2001, dated 2007) are described below.

Sequence of HPV-11 E2 (E2-dependent binding of E1 to the HPV-11 origin of replication) (P04015 whole entry): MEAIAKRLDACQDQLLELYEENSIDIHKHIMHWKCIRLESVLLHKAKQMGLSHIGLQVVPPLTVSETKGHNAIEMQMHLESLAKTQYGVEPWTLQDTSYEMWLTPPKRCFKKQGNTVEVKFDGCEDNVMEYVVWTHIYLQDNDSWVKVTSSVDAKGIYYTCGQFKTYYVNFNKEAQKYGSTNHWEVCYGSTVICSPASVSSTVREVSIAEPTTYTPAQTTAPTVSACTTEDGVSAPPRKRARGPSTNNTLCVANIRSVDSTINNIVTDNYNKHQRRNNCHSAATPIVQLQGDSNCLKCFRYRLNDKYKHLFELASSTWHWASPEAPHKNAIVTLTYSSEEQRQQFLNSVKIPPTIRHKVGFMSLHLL
T1 sequence (P03070 whole entry, one chain of several): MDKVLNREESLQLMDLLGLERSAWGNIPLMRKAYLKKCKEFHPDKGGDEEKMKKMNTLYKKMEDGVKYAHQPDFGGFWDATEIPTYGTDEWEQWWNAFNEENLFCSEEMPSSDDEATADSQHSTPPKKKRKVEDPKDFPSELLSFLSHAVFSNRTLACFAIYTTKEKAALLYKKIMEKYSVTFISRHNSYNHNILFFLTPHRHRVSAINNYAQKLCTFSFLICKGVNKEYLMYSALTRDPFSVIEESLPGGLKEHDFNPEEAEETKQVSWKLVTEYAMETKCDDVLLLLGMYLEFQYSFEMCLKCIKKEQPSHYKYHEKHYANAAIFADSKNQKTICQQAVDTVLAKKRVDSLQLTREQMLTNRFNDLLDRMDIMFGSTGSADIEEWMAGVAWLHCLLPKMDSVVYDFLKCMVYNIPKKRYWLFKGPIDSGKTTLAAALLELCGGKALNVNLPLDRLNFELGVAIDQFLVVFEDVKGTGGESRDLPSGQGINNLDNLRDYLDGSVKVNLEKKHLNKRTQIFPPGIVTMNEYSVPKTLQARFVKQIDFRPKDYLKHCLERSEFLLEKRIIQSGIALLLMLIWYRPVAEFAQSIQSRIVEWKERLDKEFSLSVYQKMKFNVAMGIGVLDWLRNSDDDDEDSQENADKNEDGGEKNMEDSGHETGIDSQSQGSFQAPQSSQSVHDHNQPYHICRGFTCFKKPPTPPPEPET

A word on the IC50: it is the concentration at which inhibition is half-maximal. As to `Cc1ccc2c(c1)C(=O)[C@]1(O[C@@H](c3ccc(Cl)c(Cl)c3)[C@@H](C(=O)Nc3ccc(-c4csnn4)cc3)[C@H]1C(=O)[O-])C2=O.[Na+]` (racemic) [Compound L], in assay [1], the IC50 is 180 nM. The “Selectivity: activity in the SV40 large T antigen assay” value in assay [2] is “lack of activity (or lower potency)”.
